{
  "source": "patent US20130273138A1",
  "about": "“TRANSDERMAL FORMULATIONS OF GERANYLGERANYLACETONE” (COYOTE PHARMACEUTICALS, INC., priority 2012, published 2013)",
  "assay": "Dissolution of GGA patch (HPLC refractive index detector)",
  "type": "physicochemical",
  "details": "3.2 cm×3 cm patch, 10 mg GGA; 24 hour time point; acetonitrile as the media",
  "protocol": "The assembly was then clipped to two pins to sink the membrane-patch assembly to the bottom of the vessel and remains at the fixed position.\nTwo chromatograms (one standard of 0.05 mg/mL and one sample taken at 24 hour time point) in FIGS. 1A and 1B illustrate the dissolution results. Nearly all GGA in the membrane was released according to this specific dissolution setting (i.e., acetonitrile as the media).",
  "data": [
    {"smiles": "CC(=O)CC/C=C(\\C)CC/C=C(\\C)CC/C=C(\\C)CCC=C(C)C", "note": "[GGA, Geranylgeranylacetone]", "values": [
      {"measurement": "GGA released from patch (dissolution)", "value": "Nearly all"}
    ]}
  ]
}
